These are literature values, as cited in patent publication US20240252580A1, “AMINO ACID HYDRATION FORMULATION AND METHOD OF USE” (The Coca-Cola Company, priority 2021, published 2024).

Peptide text beside a SMILES is read from it.

The conditions of the data set: for effect on sodium and water absorption from the human jejunum: perfusion technique; for dependence of sodium and water absorption on amino acid concentration: saturation not demonstrated over the range of concentrations.

For `NCC(=O)O` [glycine], the “effect on sodium and water absorption from the human jejunum” value (from here on “effect on sodium and water absorption”) is reported as “significant stimulation”; the “dependence of sodium and water absorption on amino acid concentration” value is reported as “increased linearly with increasing concentration”.

Turning to `NCC(=O)NCC(=O)O` [Gly-Gly, glycyl-glycine] (H-Gly-Gly-OH), the “effect on sodium and water absorption” value is on record as “significant stimulation”.

As to `C[C@H](NC(=O)CN)C(=O)O` [Gly-Ala, glycyl-L-alanine] (H-Gly-Ala-OH), the “effect on sodium and water absorption” value is listed as “significant stimulation”.

As to `C[C@H](N)C(=O)O` [alanine], the “effect on sodium and water absorption” value was “significant stimulation”; the “dependence of sodium and water absorption on amino acid concentration” value was “increased linearly with increasing concentration”.
